The values below come from ChEMBL document CHEMBL5726559, “Aryl, heteroaryl, and heterocyclic compounds for treatment of complement mediated disorders” (2017).

SMILES strings stand for the structures. pIC50: −log10 of the molar value.

In this assay the target is Complement factor D (Homo sapiens, UniProt P00746). In words: Factor D Assay: Human factor D (purified from human serum, Complement Technology, Inc.) at 80 nM final concentration is incubated with test compound at various concentrations for 5 minutes at room temperature in 50 mM Tris, 1M NaCl, pH 7.5. A synthetic substrate Z-L-Lys-SBzl and DTNB (Ellman's reagent) are added to final concentrations of 100 μM each. The increase in color is recorded at OD405 nm in a microplate in kinetic mode over 30 minutes with 30 second time points in a spectrofluorimeter. IC50 values are calculated by non-linear regression from the percentage of inhibition of complement factor D activity as a function of test compound concentration.
Complement factor D, sequence (P00746 whole entry): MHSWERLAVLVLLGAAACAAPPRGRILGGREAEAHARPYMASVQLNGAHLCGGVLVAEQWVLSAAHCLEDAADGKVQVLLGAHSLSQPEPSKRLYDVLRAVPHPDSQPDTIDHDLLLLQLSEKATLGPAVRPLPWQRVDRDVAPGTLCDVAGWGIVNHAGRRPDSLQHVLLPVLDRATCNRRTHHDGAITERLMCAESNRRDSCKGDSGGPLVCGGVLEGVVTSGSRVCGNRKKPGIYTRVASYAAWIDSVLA
Turning to `CC(=O)c1cn(CC(=O)N2C[C@H](F)C[C@H]2C(=O)Nc2cccc(Br)n2)c2ccc(-c3ccc(C)nn3)cc12`, the negative logarithm of the IC50 (pIC50) is more than 6.00.

For the compound `NC(=O)c1nn(CC(=O)N2C[C@H](F)C[C@H]2C(=O)Nc2cccc(Cl)n2)c2ccc(-c3ccnnc3)cc12`, the pIC50 is more than 6.00.

Regarding `CC(=O)c1cn(CC(=O)N2C[C@H](F)C[C@H]2C(=O)Nc2cccc(Cl)n2)c2ccc(-c3ccnnc3)cc12`, the pIC50 was more than 6.00.

As usually defined, the pIC50 is −log10 of the IC50, conventionally taken in molar units.
